Measurements: the NIST ThermoML archive (doi:10.1016/j.fluid.2007.09.002)

Tests used:
[1] = Liquid, Closed cell (Static) method
[2] = excess molar enthalpy (molar enthalpy of mixing); xn = mol fraction of the nth substance listed; settings: 298.15 K, 101.3 kPa, Liquid, Flow calorimetry

CC#CCCC [2-hexyne]
[1]
Settings	vapor or sublimation pressure [kPa]
263.15 K	1.372
273.15 K	2.56
283.15 K	4.532
293.15 K	7.66
298.15 K	9.804
303.15 K	12.43
313.15 K	19.45
323.15 K	29.46
333.15 K	43.35
343.15 K	62.15

CC#CCCC [2-hexyne] + CCCCOC
[2]
Settings	excess molar enthalpy [kcal/mol]
x1 = 0.1468	-0.0143
x1 = 0.3058	-0.0287
x1 = 0.4949	-0.039
x1 = 0.637	-0.0382
x1 = 0.7489	-0.0335
x1 = 0.8444	-0.0191

CCC#CCC [3-hexyne]
[1]
Settings	vapor or sublimation pressure [kPa]
263.15 K	1.613
273.15 K	3.001
283.15 K	5.293
293.15 K	8.909
298.15 K	11.38
303.15 K	14.39
313.15 K	22.4
323.15 K	33.77
333.15 K	49.44
343.15 K	70.52

CCC#CCC [3-hexyne] + CCCCOCCCC
[2]
Settings	excess molar enthalpy [kcal/mol]
x1 = 0.1599	0.00956
x1 = 0.2756	0.0143
x1 = 0.3989	0.0174
x1 = 0.496	0.0184
x1 = 0.5781	0.0182
x1 = 0.6579	0.0163
x1 = 0.7475	0.0136
x1 = 0.8783	0.00837

CCCCOC [butyl methyl ether]
[1]
Settings	vapor or sublimation pressure [kPa]
263.15 K	3.054
273.15 K	5.436
283.15 K	9.207
293.15 K	14.93
298.15 K	18.73
303.15 K	23.3
313.15 K	35.15
323.15 K	51.45
333.15 K	73.31
343.15 K	101.96
